{"source": "patent US12539302B2", "about": "“Methods and compositions for the treatment of hair loss” (Aneira Pharma, Inc., priority 2019, dated 2026)", "origin": "cited, not measured here", "key": {"human FP receptors [1]": {"biological_target": "T1, human FP receptors (Homo sapiens, UniProt P43088)", "T1 sequence (P43088 whole entry)": "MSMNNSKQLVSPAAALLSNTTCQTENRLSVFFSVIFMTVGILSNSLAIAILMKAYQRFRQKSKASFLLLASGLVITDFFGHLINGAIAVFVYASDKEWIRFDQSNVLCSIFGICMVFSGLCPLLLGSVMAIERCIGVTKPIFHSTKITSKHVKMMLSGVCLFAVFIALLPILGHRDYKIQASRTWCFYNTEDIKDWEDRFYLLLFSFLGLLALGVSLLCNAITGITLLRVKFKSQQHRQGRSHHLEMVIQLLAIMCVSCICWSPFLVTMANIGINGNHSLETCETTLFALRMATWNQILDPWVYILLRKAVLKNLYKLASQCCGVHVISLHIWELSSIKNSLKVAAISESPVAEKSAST", "conditions": "FP receptor agonist"}, "human FP receptors [2]": {"biological_target": "T1, human FP receptors"}, "hair growth [3]": {"tested_on": "hair growth", "conditions": "McCarey et al. 2004"}, "[4]": {"tested_on": "elevated intraocular pressure model of glaucoma", "conditions": "Gagliuso et al. 2004"}, "[5]": {"tested_on": "elevated intraocular pressure", "conditions": "patients non-responsive to latanoprost, Gandolfi 2003"}, "[6]": {"tested_on": "dihydrotestosterone (DHT) production", "conditions": "oral; including prostate gland and scalp"}, "[7]": {"conditions": "propylene glycol, methanol, ethanol and 2-propanol"}, "hair growth [8]": {"tested_on": "hair growth"}}, "note": "Where two headings read alike, the source gives them in different places.", "data": [{"smiles": "O=C(O)CCC/C=C\\C[C@@H]1[C@@H](CC[C@@H](O)CCc2ccccc2)[C@H](O)C[C@@H]1O", "note": "[Latanoprost free acid, Latanoprost acid]", "values": [{"measurement": "potency relative to PGF2α", "setting": "human FP receptors [1]", "result": "twice the potency"}, {"measurement": "potency as FP receptor ligand relative to latanoprost", "setting": "human FP receptors [2]", "result": "two-hundred times more potent"}]}, {"smiles": "CCCCCCCC(=O)CC[C@@H]1[C@@H](C/C=C\\CCCC(=O)OC(C)C)[C@@H](O)C[C@H]1O", "note": "[Uenoprostone isopropyl ester, Unoprostone isopropyl ester]", "values": [{"measurement": "hair growth", "setting": "hair growth [3]", "result": "cause no hair growth"}]}, {"smiles": "CCNC(=O)CCC/C=C\\C[C@@H]1[C@@H](/C=C/[C@@H](O)CCc2ccccc2)[C@H](O)C[C@@H]1O", "note": "[bimatoprost, Bimatoprost]", "values": [{"measurement": "effect on elevated intraocular pressure in combination", "setting": "[4]", "result": "additive to that of latanoprost"}, {"measurement": "response in reducing elevated intraocular pressure", "setting": "[5]", "result": "responsive"}]}, {"smiles": "CC(C)(C)NC(=O)[C@H]1CC[C@H]2[C@@H]3CC[C@H]4NC(=O)C=C[C@]4(C)[C@H]3CC[C@]12C", "note": "[finasteride, (1S,3aS,3bS,5aR,9aR,9bS,11aS)-N-tert-butyl-9a,11a-dimethyl-7-oxo-1,2,3,3a,3b,4,5,5a,6,9b,10,11-dodecahydroindeno[5,4-f]quinoline-1-carboxamide]", "values": [{"measurement": "decrease of DHT production", "setting": "[6]", "result": "about 70%"}]}, {"smiles": "CC(C)OC(=O)CCC/C=C\\C[C@@H]1[C@@H](CC[C@@H](O)CCc2ccccc2)[C@H](O)C[C@@H]1O", "note": "[latanoprost, Latanoprost]", "values": [{"measurement": "time stable", "setting": "acidic or basic aqueous solutions", "result": "no more than 48 hours"}, {"measurement": "time stable", "setting": "neutral aqueous solutions, room temperature", "result": "stable for up to one month"}, {"measurement": "solubility, highest concentration that can be used", "setting": "[7]", "result": "≥ 5", "unit": "%"}]}, {"smiles": "Nc1cc(N2CCCCC2)nc(N)[n+]1OS(=O)(=O)[O-]", "note": "[minoxidil sulphate]", "values": [{"measurement": "potency as hair growth agent compared to minoxidil", "setting": "hair growth [8]", "result": "much more potent"}]}, {"smiles": "CCCCCCCC(=O)CC[C@@H]1[C@@H](C/C=C\\CCCC(=O)O)[C@@H](O)C[C@H]1O", "note": "[uenoprostone free acid]", "values": [{"measurement": "hair growth", "setting": "hair growth [3]", "result": "cause no hair growth"}]}]}
